Source: patent US8952024B2, “Herbicidal pyrimidone derivatives” (E I du Pont de Nemours and Company, priority 2009, dated 2015)

Columns and labels:
Experiment in all cases: Test B pre-/postemergence plant response
Format in all cases: in vivo
[1] = tested on: yellow nutsedge (Cyperus esculentus)
Outline: (§1)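 Seeds sown in loam–sand blend were treated preemergence, and plants at 2–18 cm (1- to 4-leaf stage) in peat-based medium were treated postemergence; compounds were formulated in non-phytotoxic solvent with surfactant. After 13–15 days in greenhouse, response was visually rated against controls, 0 (no effect) to 100 (complete control).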

[2] = tested on: bermudagrass (Cynodon dactylon)
Outline: as §1

[3] = tested on: cocklebur (Xanthium strumarium)
Outline: as §1

[4] = tested on: wheat (Triticum aestivum)
Outline: as §1

kochia (Kochia scoparia) = tested on: kochia (Kochia scoparia)
Outline: as §1

[5] = tested on: morningglory (Ipomoea coccinea)
Outline: as §1

soybean (Glycine max) = tested on: soybean (Glycine max)
Outline: as §1

[6] = tested on: downy bromegrass (Bromus tectorum)
Outline: as §1

[7] = tested on: velvetleaf (Abutilon theophrasti)
Outline: as §1

[8] = tested on: Italian ryegrass (Lolium multiflorum)
Outline: as §1

[9] = tested on: woolly cupgrass (Eriochloa villosa)
Outline: as §1

[10] = tested on: large crabgrass (Digitaria sanguinalis)
Outline: as §1

[11] = 31 g ai/ha, postemergence, scale 0 to 100, 0 is no effect, 100 is complete control
[12] = 62 g ai/ha, postemergence, 0 is no effect, 100 is complete control, 13 to 15 days
[13] = Postemergence, 125 g ai/ha, visual rating after 13 to 15 days, scale 0 (no effect) to 100 (complete control)
[14] = Postemergence, 250 g ai/ha, scale 0 to 100 (0 no effect, 100 complete control)
[15] = Preemergence, 31 g ai/ha, scale 0 to 100 (0 no effect, 100 complete control)
[16] = Preemergence, 62 g ai/ha, scale 0 to 100 (0 no effect, 100 complete control)
[17] = Preemergence, 125 g ai/ha, scale 0 to 100, 0 no effect, 100 complete control
[18] = Preemergence, 250 g ai/ha, 0 to 100 scale

Q: How did the “Plant response rating, Nutsedge, Yellow” value [1, 11] turn out when `CCCn1c(-c2cccs2)ncc(C(=O)C2=C(O)CCCC2=O)c1=O` [Compound 77] was run?
A: 45

Q: What about the “Nutsedge, Yellow plant response rating (0 to 100 scale)” value [1, 12] of the same molecule?
A: 60

Q: What about the “Plant response rating, Nutsedge, Yellow” value [1, 13] of the same molecule?
A: 70

Q: And the “Plant response rating, Nutsedge, Yellow” value [1, 14]?
A: 80

Q: What about the “Plant response rating, Nutsedge, Yellow” value [1, 15] of the same molecule?
A: 75

Q: And the “Plant response rating, Nutsedge, Yellow” value [1, 16]?
A: 80

Q: What about the “Plant response rating, Nutsedge, Yellow” value [1, 17] of the same molecule?
A: 90

Q: And the “Nutsedge, Yellow plant response rating” value [1, 18]?
A: 90

Q: What about the “Plant response rating, Bermudagrass” value [2, 11] of the same molecule?
A: 90

Q: What about the “Bermudagrass plant response rating (0 to 100 scale)” value [2, 12] of the same molecule?
A: 90

Q: What about the “Plant response rating, Bermudagrass” value [2, 13] of the same molecule?
A: 95

Q: What about the “Plant response rating, Bermudagrass” value [2, 14] of the same molecule?
A: 95

Q: And the “Plant response rating, Bermudagrass” value [2, 15]?
A: 55

Q: And the “Plant response rating, Bermudagrass” value [2, 16]?
A: 100

Q: And the “Plant response rating, Bermudagrass” value [2, 17]?
A: 100

Q: What about the “Bermudagrass plant response rating” value ([2]; Preemergence, 250 g ai/ha, 0 to 100 scale, 0 no effect, 100 complete control) of the same molecule?
A: 100

Q: And the “Plant response rating, Cocklebur” value [3, 11]?
A: 0

Q: And the “Cocklebur plant response rating (0 to 100 scale)” value [3, 12]?
A: 0

Q: And the “Plant response rating, Cocklebur” value [3, 13]?
A: 60

Q: And the “Plant response rating, Cocklebur” value [3, 14]?
A: 85

Q: What about the “Plant response rating, Cocklebur” value [3, 15] of the same molecule?
A: 0

Q: And the “Plant response rating, Cocklebur” value [3, 16]?
A: 0

Q: And the “Plant response rating, Cocklebur” value [3, 17]?
A: 10

Q: What about the “Cocklebur plant response rating” value [3, 18] of the same molecule?
A: 65

Q: What about the “Plant response rating, Wheat” value [4, 11] of the same molecule?
A: 0

Q: What about the “Wheat plant response rating (0 to 100 scale)” value [4, 12] of the same molecule?
A: 5

Q: And the “Plant response rating, Wheat” value [4, 13]?
A: 10

Q: And the “Plant response rating, Wheat” value [4, 14]?
A: 10

Q: What about the “Plant response rating, Wheat” value [4, 15] of the same molecule?
A: 0

Q: What about the “Plant response rating, Wheat” value [4, 16] of the same molecule?
A: 0

Q: What about the “Plant response rating, Wheat” value [4, 17] of the same molecule?
A: 0

Q: What about the “Wheat plant response rating” value [4, 18] of the same molecule?
A: 0

Q: What about the “Plant response rating, Kochia” value (kochia (Kochia scoparia); [11]) of the same molecule?
A: 75

Q: And the “Kochia plant response rating (0 to 100 scale)” value (kochia (Kochia scoparia); [12])?
A: 80

Q: What about the “Plant response rating, Kochia” value (kochia (Kochia scoparia); [13]) of the same molecule?
A: 95

Q: And the “Plant response rating, Kochia” value (kochia (Kochia scoparia); [14])?
A: 95

Q: What about the “Plant response rating, Kochia” value (kochia (Kochia scoparia); [15]) of the same molecule?
A: 85

Q: What about the “Plant response rating, Kochia” value (kochia (Kochia scoparia); [16]) of the same molecule?
A: 90

Q: What about the “Plant response rating, Kochia” value (kochia (Kochia scoparia); [17]) of the same molecule?
A: 90

Q: And the “Kochia plant response rating” value (kochia (Kochia scoparia); [18])?
A: 95

Q: And the “Plant response rating, Morningglory” value [5, 11]?
A: 75

Q: And the “Morningglory plant response rating (0 to 100 scale)” value [5, 12]?
A: 75

Q: And the “Plant response rating, Morningglory” value [5, 13]?
A: 80

Q: And the “Plant response rating, Morningglory” value [5, 14]?
A: 90

Q: And the “Plant response rating, Morningglory” value [5, 15]?
A: 0

Q: What about the “Plant response rating, Morningglory” value [5, 16] of the same molecule?
A: 65

Q: What about the “Plant response rating, Morningglory” value [5, 17] of the same molecule?
A: 75

Q: And the “Morningglory plant response rating” value [5, 18]?
A: 90

Q: What about the “Plant response rating, Soybean” value (soybean (Glycine max); [11]) of the same molecule?
A: 25

Q: What about the “Soybean plant response rating (0 to 100 scale)” value (soybean (Glycine max); [12]) of the same molecule?
A: 50

Q: What about the “Plant response rating, Soybean” value (soybean (Glycine max); [13]) of the same molecule?
A: 70

Q: What about the “Plant response rating, Soybean” value (soybean (Glycine max); [14]) of the same molecule?
A: 70

Q: What about the “Plant response rating, Bromegrass, Downy” value [6, 11] of the same molecule?
A: 0

Q: What about the “Bromegrass, Downy plant response rating (0 to 100 scale)” value [6, 12] of the same molecule?
A: 5

Q: And the “Plant response rating, Bromegrass, Downy” value [6, 13]?
A: 5

Q: What about the “Plant response rating, Bromegrass, Downy” value [6, 14] of the same molecule?
A: 5

Q: And the “Plant response rating, Bromegrass, Downy” value [6, 15]?
A: 0

Q: And the “Plant response rating, Bromegrass, Downy” value [6, 16]?
A: 0

Q: What about the “Plant response rating, Bromegrass, Downy” value [6, 17] of the same molecule?
A: 0

Q: And the “Bromegrass, Downy plant response rating” value [6, 18]?
A: 0

Q: What about the “Plant response rating, Velvetleaf” value [7, 11] of the same molecule?
A: 90

Q: What about the “Velvetleaf plant response rating (0 to 100 scale)” value [7, 12] of the same molecule?
A: 98

Q: And the “Plant response rating, Velvetleaf” value [7, 13]?
A: 98

Q: And the “Plant response rating, Velvetleaf” value [7, 14]?
A: 100

Q: And the “Plant response rating, Velvetleaf” value [7, 15]?
A: 95

Q: And the “Plant response rating, Velvetleaf” value [7, 16]?
A: 100

Q: What about the “Plant response rating, Velvetleaf” value [7, 17] of the same molecule?
A: 100

Q: And the “Velvetleaf plant response rating” value [7, 18]?
A: 100

Q: And the “Plant response rating, Ryegrass, Italian” value [8, 11]?
A: 0

Q: And the “Ryegrass, Italian plant response rating (0 to 100 scale)” value [8, 12]?
A: 5

Q: What about the “Plant response rating, Ryegrass, Italian” value [8, 13] of the same molecule?
A: 5

Q: What about the “Plant response rating, Ryegrass, Italian” value [8, 14] of the same molecule?
A: 10

Q: What about the “Plant response rating, Ryegrass, Italian” value [8, 15] of the same molecule?
A: 0

Q: What about the “Plant response rating, Ryegrass, Italian” value [8, 16] of the same molecule?
A: 0

Q: And the “Plant response rating, Ryegrass, Italian” value [8, 17]?
A: 0

Q: What about the “Ryegrass, Italian plant response rating” value [8, 18] of the same molecule?
A: 0

Q: And the “Plant response rating, Cupgrass, Woolly” value [9, 11]?
A: 20

Q: And the “Cupgrass, Woolly plant response rating (0 to 100 scale)” value [9, 12]?
A: 20

Q: And the “Plant response rating, Cupgrass, Woolly” value [9, 13]?
A: 35

Q: And the “Plant response rating, Cupgrass, Woolly” value [9, 14]?
A: 40

Q: What about the “Plant response rating, Cupgrass, Woolly” value [9, 15] of the same molecule?
A: 0

Q: And the “Plant response rating, Cupgrass, Woolly” value [9, 16]?
A: 0

Q: What about the “Plant response rating, Cupgrass, Woolly” value [9, 17] of the same molecule?
A: 0

Q: What about the “Cupgrass, Woolly plant response rating” value [9, 18] of the same molecule?
A: 0

Q: What about the “Plant response rating, Crabgrass, Large” value [10, 11] of the same molecule?
A: 55

Q: What about the “Crabgrass, Large plant response rating (0 to 100 scale)” value [10, 12] of the same molecule?
A: 60

Q: And the “Plant response rating, Crabgrass, Large” value [10, 13]?
A: 75

Q: And the “Plant response rating, Crabgrass, Large” value [10, 14]?
A: 85

Q: And the “Plant response rating, Crabgrass, Large” value [10, 15]?
A: 70

Q: And the “Plant response rating, Crabgrass, Large” value [10, 16]?
A: 98

Q: And the “Plant response rating, Crabgrass, Large” value [10, 17]?
A: 98

Q: And the “Crabgrass, Large plant response rating” value [10, 18]?
A: 100
